In one data set the test system is NCI-H23. Nature of the data set: Antiproliferative activity against human NCI-H23 cells incubated for 48 hrs by MTT assay. Format: functional, cell-based. As to conditions: NCI-H23, 48 h.
Data set [1] has as its system B16-F10. Nature of the data set: Induction of cell cycle arrest in mouse B16-F10 cells assessed as accumulation of cells at S phase at 0.5 nM incubated for 12 hrs by flow cytometry (reference value: 30.5 %). Type of data set: functional.
Data set [2] concerns B16-F10. Nature of the data set: Induction of apoptosis in mouse B16-F10 cells assessed as viable cells at 0.5 nM incubated for 12 hrs by Annexin V-FITC/PI staining based flow cytometry (reference value: 93.6 %). Type of data set: functional. As to conditions: read-out: Activity.
Data set [3] has as its system B16-F10. Nature of the data set: Induction of apoptosis in mouse B16-F10 cells assessed as necrotic cells at 0.5 nM incubated for 12 hrs by Annexin V-FITC/PI staining based flow cytometry (reference value: 0.25 %). Format: functional.
The nature of data set [4]: Toxicity in C57 mouse xenografted with mouse B16-F10 cells assessed as neutrophil count at 3.5 mg/kg, ip qd for 12 days in presence of NP-19 by biochemical analysis (reference value: 2.130 to 5.46 10^9/L). Type of data set: organism-based. To be noted: in vivo, 288 h, time 12 day.
Data set [5] is described as follows: Toxicity in C57 mouse xenografted with mouse B16-F10 cells assessed as lymphocytes level at 3.5 mg/kg, ip qd for 12 days in presence of NP-19 by biochemical analysis (reference value: 7.300 to 65.500 %). As to conditions: in vivo, 288 h, time 12 day. Format: organism-based.

Molecules are shown by their SMILES.

In the data set on NCI-H23, `Cc1nc(N(C)c2ccc3c(ccn3C)c2)c2sccc2n1` displayed an IC50 of 8.94 nM. Further, the Activity in the data set on B16-F10 [1] is on record as 15.9%; in the data set with B16-F10 [3], 1.44%; in data set [4], 1.38 10^9/L; in data set [5], 2.4%. The viability at 0.0005 µM in the data set with B16-F10 [2] was 80.1%.

(Values after ChEMBL document CHEMBL5614416, “Discovery of novel thiophene[3,2-d]pyrimidine-based tubulin inhibitors with enhanced antitumor efficacy for combined use with anti-pd-l1 immunotherapy in melanoma” (Eur J Med Chem, 2024).)
